Measurements as given in patent US20240116985A1, “STAPLED PEPTIDES AND METHODS THEREOF” (priority 2020, published 2024).
Values after ≈ are worked out from the molar mass of the structure shown. Read-outs that look alike come from different tables or passages of the source.

Tests used:
Solubility in PBS = assay type: physicochemical
In short: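 Steps: ultracentrifuge the peptide PBS solution, inject the supernatant on HPLC, inject a 50 μM peptide DMSO solution as reference, then calculate solubility as area ratio (PBS/DMSO) × 50 uM.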

[1] = target: T1, full-length beta-Catenin (Uniprot ID P35222) (Homo sapiens, UniProt P35222); assay: Fluorescence polarization IC50 (beta-catenin / 5FAM-TCF4 10-53 competition); assay type: binding
T1 construct: 10 nM full-length beta-Catenin (Uniprot ID P35222)
T1 sequence (P35222 1-781): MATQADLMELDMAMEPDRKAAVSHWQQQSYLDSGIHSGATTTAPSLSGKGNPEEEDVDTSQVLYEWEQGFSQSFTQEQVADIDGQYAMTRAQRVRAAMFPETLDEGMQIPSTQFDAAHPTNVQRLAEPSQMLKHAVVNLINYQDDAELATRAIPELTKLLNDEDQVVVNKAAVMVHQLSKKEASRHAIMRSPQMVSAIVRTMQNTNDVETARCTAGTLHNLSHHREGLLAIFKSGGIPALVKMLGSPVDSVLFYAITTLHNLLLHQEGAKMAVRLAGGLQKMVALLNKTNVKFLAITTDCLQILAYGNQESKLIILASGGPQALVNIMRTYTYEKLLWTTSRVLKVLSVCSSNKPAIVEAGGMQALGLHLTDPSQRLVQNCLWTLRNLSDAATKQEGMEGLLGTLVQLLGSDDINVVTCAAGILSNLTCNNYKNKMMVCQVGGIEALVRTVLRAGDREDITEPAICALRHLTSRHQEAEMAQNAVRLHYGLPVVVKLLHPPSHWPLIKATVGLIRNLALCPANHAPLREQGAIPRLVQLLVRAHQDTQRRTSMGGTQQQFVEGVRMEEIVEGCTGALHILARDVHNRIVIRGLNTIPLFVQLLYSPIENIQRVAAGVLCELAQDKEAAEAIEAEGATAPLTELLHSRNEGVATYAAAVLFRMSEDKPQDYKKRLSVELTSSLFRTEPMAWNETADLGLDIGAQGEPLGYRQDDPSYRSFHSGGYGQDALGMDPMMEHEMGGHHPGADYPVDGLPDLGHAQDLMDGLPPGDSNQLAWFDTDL

CHI Log D procedure = assay type: physicochemical; settings: for CHI Log D: pH 7.4; for chromatographic logD: pH 7.4, CHI Log D
[2] = fluorescence polarization, read-out: beta-Catenin FP IC50

SMILES	Solubility (Solubility in PBS)	IC50 [1, 2]	IC50 ([1]; read-out: FP EC50)	CHI Log D (CHI Log D procedure)	chromatographic logD (CHI Log D procedure)	Solubility (Solubility in PBS; Solubility (uM))
CC(=O)N1CCC[C@]12CC=CCCCC1(CCCC=CCCCCCC[C@@](C)(C(=O)N[C@@H](Cc3ccccc3)C(=O)N[C@@H](Cc3csc4ccccc34)C(=O)N[C@@H](CCO)C(N)=O)NC(=O)[C@H](CCC(N)=O)NC(=O)[C@H](Cc3ccccc3)NC(=O)[C@H](C)NC(=O)[C@H](C)NC(=O)[C@H](CCC(=O)O)NC(=O)[C@H](CC(=O)O)NC1=O)NC(=O)[C@H](C)NC(=O)[C@H](CC(=O)O)NC2=O (stereo partly drawn) [I-491, Ac-PL3-Asp-Ala-B5-Asp-Glu-Ala-Ala-Phe-Gln-S8-Phe-BztA-Hse-NH2]	39 µM (≈ 70.7 µg/mL)	153 nM	153 nM	2.023		
CC(=O)N1CCC[C@]12CC=CCCCC1(CCCC=CCCCCCC[C@@](C)(C(=O)N[C@@H](Cc3ccccc3)C(=O)N[C@@H](Cc3csc4ccccc34)C(=O)N[C@@H](CCO)C(N)=O)NC(=O)[C@H](CCC(N)=O)NC(=O)[C@H](Cc3ccccc3)NC(=O)[C@H](C)NC(=O)[C@H](C)NC(=O)[C@H](CCC(=O)O)NC(=O)[C@H](CC(=O)O)NC1=O)NC(=O)[C@H](C)NC(=O)[C@H](CC(=O)O)NC2=O (stereo partly drawn) [I-492, Ac-PL3-Asp-Ala-B5-Asp-Glu-Ala-Ala-Phe-Gln-S8-Phe-BztA-Hse-NH2]	49 µM (≈ 88.9 µg/mL)	53 nM	53 nM	2.052		
CC(=O)N1CCC[C@]12CC=CCCCC1(CCCC=CCCCCCC[C@@](C)(C(=O)N[C@@H](Cc3ccccc3)C(=O)N[C@@H](Cc3csc4ccccc34)C(=O)N[C@H](CO)C(N)=O)NC(=O)[C@H](CCC(N)=O)NC(=O)[C@H](Cc3ccccc3)NC(=O)[C@H](C)NC(=O)[C@H](C)NC(=O)[C@H](CCC(=O)O)NC(=O)[C@H](CC(=O)O)NC1=O)NC(=O)[C@H](C)NC(=O)[C@H](CC(=O)O)NC2=O (stereo partly drawn) [I-493, Ac-PL3-Asp-Ala-B5-Asp-Glu-Ala-Ala-Phe-Gln-S8-Phe-BztA-DSer-NH2]	50 µM (≈ 90 µg/mL)	88 nM			2.2	
CC(=O)N1CCC[C@]12CC=CCCCC1(CCCC=CCCCCCC[C@@](C)(C(=O)N[C@@H](Cc3ccccc3)C(=O)N[C@@H](Cc3csc4ccccc34)C(=O)N[C@H](CCC(N)=O)C(N)=O)NC(=O)[C@H](CCC(N)=O)NC(=O)[C@H](Cc3ccccc3)NC(=O)[C@H](C)NC(=O)[C@H](C)NC(=O)[C@H](CCC(=O)O)NC(=O)[C@H](CC(=O)O)NC1=O)NC(=O)[C@H](C)NC(=O)[C@H](CC(=O)O)NC2=O (stereo partly drawn) [I-494, Ac-PL3-Asp-Ala-B5-Asp-Glu-Ala-Ala-Phe-Gln-S8-Phe-BztA-DGIn-NH2]		82 nM			2.05	44 µM (≈ 81 µg/mL)
CC(=O)N1CCC[C@]12CC=CCCCC1(CCCC=CCCCCCC[C@@](C)(C(=O)N[C@@H](Cc3ccccc3)C(=O)N[C@@H](Cc3csc4ccccc34)C(=O)N[C@@H](Cc3c[nH]cn3)C(N)=O)NC(=O)[C@H](CCC(N)=O)NC(=O)[C@H](Cc3ccccc3)NC(=O)[C@H](C)NC(=O)[C@H](C)NC(=O)[C@H](CN(CC(=O)O)CC(F)(F)F)NC(=O)[C@H](CC(=O)O)NC1=O)NC(=O)[C@H](C)NC(=O)[C@H](CC(=O)O)NC2=O (stereo partly drawn) [I-499, Ac-PL3-Asp-Ala-B5-Asp-TfeGA-Ala-Ala-Phe-Gln-S8-Phe-BztA-His-NH2]		123 nM			2.17	48 µM (≈ 93.5 µg/mL)
CC[C@H](C)[C@@H]1NC(=O)[C@H](CC(=O)O)NC(=O)[C@]2(CC=CCCCC3(CCCC=CCCCCCC[C@@](C)(C(=O)N[C@@H](Cc4ccccc4)C(=O)N[C@@H](Cc4csc5ccccc45)C(=O)N[C@@H](Cc4c[nH]cn4)C(N)=O)NC(=O)[C@H](CCC(N)=O)NC(=O)[C@H](Cc4ccccc4)NC(=O)[C@H](C)NC(=O)[C@H](C)NC(=O)[C@H](CN(CC(=O)O)CC(F)(F)F)NC(=O)[C@H](CC(=O)O)NC3=O)NC1=O)CCCN2C(C)=O (stereo partly drawn) [I-500, Ac-PL3-Asp-Ile-B5-Asp-TfeGA-Ala-Ala-Phe-Gln-S8-Phe-BztA-His-NH2]		176 nM			2.63	28 µM (≈ 55.7 µg/mL)
CC(=O)N1CCC[C@]12CC=CCCCC1(CCCC=CCCCCCC[C@@](C)(C(=O)N[C@@H](Cc3ccccc3)C(=O)N[C@@H](Cc3csc4ccccc34)C(=O)N[C@@H](CCC(N)=O)C(N)=O)NC(=O)[C@H](CCC(N)=O)NC(=O)[C@H](Cc3ccccc3)NC(=O)[C@H](C)NC(=O)[C@H](C)NC(=O)[C@H](CCC(=O)O)NC(=O)[C@H](CC(=O)O)NC1=O)NC(=O)[C@H](CC(F)(F)F)NC(=O)[C@H](CC(=O)O)NC2=O (stereo partly drawn) [I-501, Ac-PL3-Asp-F3CA-B5-Asp-Glu-Ala-Ala-Phe-Gln-S8-Phe-BztA-Gln-NH2]	49 µM (≈ 93.5 µg/mL)	94 nM	94 nM	2.138		
CC(=O)N1CCC[C@]12CC=CCCCC1(CCCC=CCCCCCC[C@@](C)(C(=O)N[C@@H](Cc3ccccc3)C(=O)N[C@@H](Cc3csc4ccccc34)C(=O)N[C@@H](CCC(N)=O)C(N)=O)NC(=O)[C@H](CCC(N)=O)NC(=O)[C@H](Cc3ccccc3)NC(=O)[C@H](C)NC(=O)[C@H](C)NC(=O)[C@H](CCC(=O)O)NC(=O)[C@H](CC(=O)O)NC1=O)NC(=O)[C@H](CC(F)(F)F)NC(=O)[C@H](CC(=O)O)NC2=O (stereo partly drawn) [I-502, Ac-PL3-Asp-F3CA-B5-Asp-Glu-Ala-Ala-Phe-Gln-S8-Phe-BztA-Gln-NH2]	50 µM (≈ 95.5 µg/mL)	55 nM	55 nM	2.171		
CC(=O)N1CCC[C@]12CC=CCCCC1(CCCC=CCCCCCC[C@@](C)(C(=O)N[C@@H](Cc3ccccc3)C(=O)N[C@@H](Cc3csc4ccccc34)C(=O)N[C@@H](CCC(N)=O)C(N)=O)NC(=O)[C@H](CCC(N)=O)NC(=O)[C@H](Cc3ccccc3)NC(=O)[C@H](C)NC(=O)[C@H](C)NC(=O)[C@H](CCC(=O)O)NC(=O)[C@H](CC(=O)O)NC1=O)NC(=O)[C@H](CC(F)F)NC(=O)[C@H](CC(=O)O)NC2=O (stereo partly drawn) [I-503, Ac-PL3-Asp-HF2CA-B5-Asp-Glu-Ala-Ala-Phe-Gln-S8-Phe-BztA-Gln-NH2]		84 nM			2.09	33 µM (≈ 62.4 µg/mL)
CC(=O)N1CCC[C@]12CC=CCCCC1(CCCC=CCCCCCC[C@@](C)(C(=O)N[C@@H](Cc3ccccc3)C(=O)N[C@@H](Cc3csc4ccccc34)C(=O)N[C@@H](Cc3c[nH]cn3)C(N)=O)NC(=O)[C@H](CCC(N)=O)NC(=O)[C@H](Cc3ccccc3)NC(=O)[C@H](C)NC(=O)[C@H](C)NC(=O)[C@H](CCC(=O)O)NC(=O)[C@H](CC(=O)O)NC1=O)NC(=O)[C@H](CC(F)(F)F)NC(=O)[C@H](CC(=O)O)NC2=O (stereo partly drawn) [I-504, Ac-PL3-Asp-F3CA-B5-Asp-Glu-Ala-Ala-Phe-Gln-S8-Phe-BztA-His-NH2]		65 nM			2.22	18 µM (≈ 34.5 µg/mL)
CC(=O)N1CCC[C@]12CC=CCCCC1(CCCC=CCCCCCC[C@@](C)(C(=O)N[C@@H](Cc3ccccc3)C(=O)N[C@@H](Cc3csc4ccccc34)C(=O)N[C@H](C(N)=O)[C@@H](C)O)NC(=O)[C@H](CCC(N)=O)NC(=O)[C@H](Cc3ccccc3)NC(=O)[C@H](C)NC(=O)[C@H](C)NC(=O)[C@H](CCC(=O)O)NC(=O)[C@H](CC(=O)O)NC1=O)NC(=O)[C@H](C)NC(=O)[C@H](CC(=O)O)NC2=O (stereo partly drawn) [I-507, Ac-PL3-Asp-Ala-B5-Asp-Glu-Ala-Ala-Phe-Gln-S8-Phe-BztA-Thr-NH2]	47 µM (≈ 85.3 µg/mL)	192 nM	192 nM	2.079		
CC(=O)N1CCC[C@]12CC=CCCCC1(CCCC=CCCCCCC[C@@](C)(C(=O)N[C@@H](Cc3ccccc3)C(=O)N[C@@H](Cc3csc4ccccc34)C(=O)N[C@H](C(N)=O)[C@@H](C)O)NC(=O)[C@H](CCC(N)=O)NC(=O)[C@H](Cc3ccccc3)NC(=O)[C@H](C)NC(=O)[C@H](C)NC(=O)[C@H](CCC(=O)O)NC(=O)[C@H](CC(=O)O)NC1=O)NC(=O)[C@H](C)NC(=O)[C@H](CC(=O)O)NC2=O (stereo partly drawn) [I-508, Ac-PL3-Asp-Ala-B5-Asp-Glu-Ala-Ala-Phe-Gln-S8-Phe-BztA-Thr-NH2]	50 µM (≈ 90.7 µg/mL)	73 nM	73 nM	2.126		
